# ± gives the standard deviation of the averaged measurements.
# Compound: CC(=O)O[C@H]1C(=O)[C@@]2(C)[C@H]([C@H](OC(=O)c3ccccc3)[C@]3(O)C[C@H](OC(=O)[C@H](O)[C@@H](NC(=O)c4ccccc4)c4ccccc4)C(C)=C1C3(C)C)[C@]1(OC(C)=O)CO[C@@H]1C[C@@H]2O [PACLITAXEL]
# Assay: surviving fraction relative to DMSO-only wells; higher = less growth inhibition
# Settings: 5 nM; exposure time: 5 days
# Method in brief: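 Viability was determined by CellTiter-Glo luminescence, expressed as surviving fraction normalised to the median of DMSO-only wells. The cells were log-phase tumour cell lines seeded at 250–500 per well in 384-well plates and, after 24 hours, exposed continuously for five days to inhibitors at 0.5, 1, 5, 10, 50, 100, 500 and 1000 nM. Three screens per line were run, keeping only lines with replicate Pearson r >0.7 and median Z' >0.3.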
row,Test System,surviving fraction
1,T47D BREAST,0.307 ± 0.0054
2,HELA CERVIX,0.0503 ± 0.001
3,NY BONE,0.0363 ± 0.0075
4,CASKI CERVIX,0.0537 ± 0.011
5,COLO320DM LARGE INTESTINE,1.1 ± 0.018
6,MDAMB361 BREAST,0.887 ± 0.04
7,HOSMNG BONE,0.921 ± 0.088
8,A549 LUNG,0.369 ± 0.011
9,CAL51 BREAST,0.0935 ± 0.013
10,OSHN BONE,0.0353 ± 0.0015
11,MCF7 BREAST,0.432 ± 0.02
12,MDAMB134 BREAST,0.904 ± 0.18
13,NCIH441 LUNG,0.529 ± 0.0097
14,OS25HAL BONE,0.29 ± 0.028
15,HCC1954 BREAST,0.199 ± 0.0014
16,22RV1 PROSTATE,0.121 ± 0.018
17,MDAMB231 BREAST,0.163 ± 0.0032
18,HCC38 BREAST,0.138 ± 0.03
19,HU09 BONE,0.0977 ± 0.0081
20,SAOS2 BONE,0.46 ± 0.043
21,MDAMB436 BREAST,0.314 ± 0.022
22,93VU HEADNECK,0.326 ± 0.015
23,KPD BONE,0.387 ± 0.029
24,SYO1 SYNOVIAL,0.107 ± 0.0096
25,CAL120 BREAST,0.158 ± 0.014
26,HCC1395 BREAST,0.782 ± 0.033
27,SUM149.B1*.S BREAST,0.238 ± 0.027

# Same assay, conditions: 10 nM; exposure time: 5 days
row,Test System,surviving fraction
1,C33A CERVIX,0.179 ± 0.031
2,PCI30 HEADNECK,0.114 ± 0.03
3,HUO3N1 BONE,0.23 ± 0.0085
4,T47D BREAST,0.265 ± 0.027
5,HELA CERVIX,0.0423 ± 0.0041
6,NY BONE,0.0327 ± 0.005
7,CASKI CERVIX,0.0343 ± 0.00058
8,COLO320DM LARGE INTESTINE,1.03 ± 0.18
9,MDAMB361 BREAST,0.707 ± 0.021
10,HOSMNG BONE,0.924 ± 0.043
11,A549 LUNG,0.234 ± 0.0055
12,CAL51 BREAST,0.0585 ± 0.0033
13,OSHN BONE,0.0313 ± 0.0011
14,MCF7 BREAST,0.383 ± 0.0065
15,MDAMB134 BREAST,0.67 ± 0.13
16,NCIH441 LUNG,0.429 ± 0.032
17,OS25HAL BONE,0.118 ± 0.007
18,HCC1954 BREAST,0.094 ± 0.0057
19,22RV1 PROSTATE,0.0847 ± 0.0021
20,MDAMB231 BREAST,0.125 ± 0.0027
21,HCC38 BREAST,0.11 ± 0.0059
22,HU09 BONE,0.0603 ± 0.0055
23,SAOS2 BONE,0.165 ± 0.013
24,MDAMB436 BREAST,0.21 ± 0.0036
25,93VU HEADNECK,0.266 ± 0.014
26,KPD BONE,0.365 ± 0.044
27,SYO1 SYNOVIAL,0.0752 ± 0.0059
28,CAL120 BREAST,0.0937 ± 0.005
29,HCC1395 BREAST,0.547 ± 0.11
30,SUM149.B1*.S BREAST,0.158 ± 0.029

# Same assay, conditions: 50 nM; exposure time: 5 days
row,Test System,surviving fraction
1,C33A CERVIX,0.11 ± 0.0091
2,PCI30 HEADNECK,0.0853 ± 0.011
3,HUO3N1 BONE,0.129 ± 0.0068
4,T47D BREAST,0.226 ± 0.011
5,HELA CERVIX,0.0277 ± 0.0016
6,NY BONE,0.0363 ± 0.0055

# — the supplement of paper PMC6045584
